Source: patent US8058475B2, “Substituted cyclohexylmethyl compounds” (Gruenenthal GmbH, priority 2005, dated 2011)

Biological target: human μ-opiate receptor (Homo sapiens, UniProt P35372)
Assay: Affinity for the human μ-opiate receptor ([3H]-naloxone displacement, SPA, CHO-K1 membrane preparation)
Type: binding
Conditions: for inhibition at 1 µM: read-out: μ-Opioid receptor, % inhibition [1 μM]; for Ki: read-out: μ-Opioid receptor, Ki

Sequence of human μ-opiate receptor (P35372 whole entry): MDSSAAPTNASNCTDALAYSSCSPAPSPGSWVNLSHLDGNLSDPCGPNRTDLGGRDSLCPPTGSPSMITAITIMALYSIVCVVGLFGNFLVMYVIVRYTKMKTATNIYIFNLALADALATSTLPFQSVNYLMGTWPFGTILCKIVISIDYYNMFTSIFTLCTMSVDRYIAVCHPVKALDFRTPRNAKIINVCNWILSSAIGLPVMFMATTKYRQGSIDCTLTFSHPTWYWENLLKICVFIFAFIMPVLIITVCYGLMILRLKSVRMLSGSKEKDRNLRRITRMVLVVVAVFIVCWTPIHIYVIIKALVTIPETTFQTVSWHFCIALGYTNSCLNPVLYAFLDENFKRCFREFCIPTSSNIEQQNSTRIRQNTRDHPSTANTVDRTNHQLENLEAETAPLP

Row | SMILES | inhibition at 1 µM | Ki
1 | CC(=O)N(C(C)Cc1c[nH]c2ccccc12)C1CCC(C(c2ccccc2)N(C)C)CC1 (stereo not shown) [compound 178, N-(1-(1H-indol-3-yl)propan-2-yl)-N-(4-((dimethylamino)(phenyl)methyl)-cyclohexyl)acetamide] | 96% | 1.2 nM
2 | CC(=O)N(Cc1ccc(F)cc1)C1CCC(C(c2ccccc2)N(C)C)CC1 (stereo not shown) [compound 179, N-(4-((dimethylamino)(phenyl)methyl)cyclohexyl)-N-(4-fluorobenzyl)acetamide] | 99% | 3 nM
3 | CCCC(=O)N(c1ccccc1)C1CCC(C(c2ccccc2)N(C)C)CC1 (stereo not shown) [compound 180, N-(4-((dimethylamino)(phenyl)methyl)cyclohexyl)-N-phenylbutyramide] | 90% | 
4 | CCCC(=O)N(CCc1c[nH]c2ccccc12)C1CCC(C(c2ccccc2)N(C)C)CC1 (stereo not shown) [compound 181, N-(2-(1H-indol-3-yl)ethyl)-N-(4-((dimethylamino)(phenyl)methyl)-cyclohexyl)butyramide] | 95% | 3.9 nM
5 | CC(=O)N(CCc1c[nH]c2ccccc12)C1CCC(C(c2ccccc2)N(C)C)CC1 (stereo not shown) [compound 182, N-(2-(1H-indol-3-yl)ethyl)-N-(4-((dimethylamino)(phenyl)methyl)cyclohexyl)-acetamide] | 95% | 2.1 nM
6 | CN(C)C(c1ccccc1)C1CCC(NC(=O)c2csc3ccccc23)CC1 (stereo not shown) [compound 183, benzo[b]thiophene-3-carboxylic acid [4-(dimethylamino-phenyl-methyl)-cyclohexyl]-amide] | 103% | 3.9 nM
7 | CN(C)C(c1ccccc1)C1CCC(NC(=O)C2(c3ccc(Cl)cc3)CCCC2)CC1 (stereo not shown) [compound 184, 1-(4-chloro-phenyl)-cyclopentanecarboxylic acid [4-(dimethylamino-phenyl-methyl)-cyclohexyl]-amide] | 101% | 5.2 nM
8 | CCCc1ccc(C(=O)NC2CCC(C(c3cccs3)N(C)C)CC2)cc1 (stereo not shown) [compound 185, N-[4-(dimethylamino-thiophen-2-yl-methyl)-cyclohexyl]-4-propyl-benzamide] | 100% | 37 nM
9 | CN(C)C(c1cccs1)C1CCC(NC(=O)c2cccc(C#N)c2)CC1 (stereo not shown) [compound 186, 3-cyano-N-[4-(dimethylamino-thiophen-2-yl-methyl)-cyclohexyl]-benzamide] | 100% | 18 nM
10 | CN(C)C(c1ccccc1)C1CCC(NC(=O)c2cccc(Cl)c2)CC1 (stereo not shown) [compound 187, 3-chloro-N-[4-(dimethylamino-phenyl-methyl)-cyclohexyl]-benzamide] | 100% | 8.5 nM
11 | COc1c(C(=O)NC2CCC(C(c3ccccc3)N(C)C)CC2)csc1Cl (stereo not shown) [compound 188, 5-chloro-4-methoxy-thiophene-3-carboxylic acid [4-(dimethylamino-phenyl-methyl)-cyclohexyl]-amide] | 100% | 5.2 nM
12 | CN(C)C(c1ccccc1)C1CCC(NC(=O)c2ccc(Cl)c(Cl)c2)CC1 (stereo not shown) [compound 189, 3,4-dichloro-N-[4-(dimethylamino-phenyl-methyl)-cyclohexyl]-benzamide] | 99% | 11 nM
13 | CN(C)C(c1ccccc1)C1CCC(NC(=O)c2cc(F)cc(C(F)(F)F)c2)CC1 (stereo not shown) [compound 190, N-[4-(dimethylamino-phenyl-methyl)-cyclohexyl]-3-fluoro-5-trifluoromethyl-benzamide] | 99% | 25 nM
14 | COc1c(C(=O)NC2CCC(C(c3cccc(F)c3)N(C)C)CC2)csc1Cl (stereo not shown) [compound 191, 5-chloro-4-methoxy-thiophene-3-carboxylic acid {4-[dimethylamino-(3-fluoro-phenyl)-methyl]-cyclohexyl}-amide] | 99% | 
15 | CN(C)C(c1cccs1)C1CCC(NC(=O)c2ccc(F)c(C(F)(F)F)c2)CC1 (stereo not shown) [compound 192, N-[4-(dimethylamino-thiophen-2-yl-methyl)-cyclohexyl]-4-fluoro-3-trifluoromethyl-benzamide] | 98% | 18 nM
16 | CN(C)C(c1cccs1)C1CCC(NC(=O)c2cccs2)CC1 (stereo not shown) [compound 193, thiophene-2-carboxylic acid [4-(dimethylamino-thiophen-2-yl-methyl)-cyclohexyl]-amide] | 96% | 23 nM
17 | CN(C)C(c1cccs1)C1CCC(NC(=O)c2cc(Cl)cc(Cl)c2)CC1 (stereo not shown) [compound 194, 3,5-dichloro-N-[4-(dimethylamino-thiophen-2-yl-methyl)-cyclohexyl]-benzamide] | 96% | 5.3 nM
18 | COc1c(C(=O)NC2CCC(C(c3cccs3)N(C)C)CC2)csc1Cl (stereo not shown) [compound 195, 5-chloro-4-methoxy-thiophene-3-carboxylic acid [4-(dimethylamino-thiophen-2-yl-methyl)-cyclohexyl]-amide] | 96% | 15 nM
19 | CN(C)C(c1ccccc1)C1CCC(NC(=O)c2cc(F)c(F)cc2F)CC1 (stereo not shown) [compound 196, N-[4-(dimethylamino-phenyl-methyl)-cyclohexyl]-2,4,5-trifluoro-benzamide] | 96% | 19 nM
20 | CN(C)C(c1ccccc1)C1CCC(NC(=O)c2cccc(Br)c2)CC1 (stereo not shown) [compound 197, 3-bromo-N-[4-(dimethylamino-phenyl-methyl)-cyclohexyl]-benzamide] | 96% | 16 nM
21 | Cc1ccc(C(=O)NC2CCC(C(c3cccs3)N(C)C)CC2)cc1 (stereo not shown) [compound 198, N-[4-(dimethylamino-thiophen-2-yl-methyl)-cyclohexyl]-4-methyl-benzamide] | 95% | 15 nM
22 | COc1cccc(C(=O)NC2CCC(C(c3cccs3)N(C)C)CC2)c1 (stereo not shown) [compound 199, N-[4-(dimethylamino-thiophen-2-yl-methyl)-cyclohexyl]-3-methoxy-benzamide] | 94% | 21 nM
23 | CN(C)C(c1cccs1)C1CCC(NC(=O)CC(C)(C)C)CC1 (stereo not shown) [compound 200, N-[4-(dimethylamino-thiophen-2-yl-methyl)-cyclohexyl]-3,3-dimethyl-butyramide] | 94% | 29 nM
24 | Cc1cc(C(=O)NC2CCC(C(c3cccs3)N(C)C)CC2)n(C(C)(C)C)n1 (stereo not shown) [compound 201, 2-tert-butyl-5-methyl-2H-pyrazole-3-carboxylic acid [4-(dimethylamino-thiophen-2-yl-methyl)-cyclohexyl]-amide] | 94% | 16 nM
25 | COc1ccc(C(=O)NC2CCC(C(c3cccs3)N(C)C)CC2)c(OC)c1 (stereo not shown) [compound 202, N-[4-(dimethylamino-thiophen-2-yl-methyl)-cyclohexyl]-2,4-dimethoxy-benzamide] | 94% | 31 nM
26 | CN(C)C(c1ccccc1)C1CCC(NC(=O)c2cccc(C(F)(F)F)c2)CC1 (stereo not shown) [compound 203, N-[4-(dimethylamino-phenyl-methyl)-cyclohexyl]-3-trifluoromethyl-benzamide] | 94% | 51 nM
27 | CN(C)C(c1cccc(F)c1)C1CCC(NC(=O)c2cc(F)cc(F)c2)CC1 (stereo not shown) [compound 204, N-{4-[dimethylamino-(3-fluoro-phenyl)-methyl]-cyclohexyl}-3,5-difluoro-benzamide] | 94% | 18 nM
